Like-named read-outs stand apart in the source and are kept apart here.
Tested on: vesicular stomatitis virus particles (VSV) pseudotyped with EboV Zaire GP
Assay: microbe, parasite or virus in culture
Assay type: cell-based

Row | Structure (SMILES) | IC50 (Vesicular stomatitis virus) [nM] | IC50 (read-out: IC50) [nM]
1 | CN(C)S(=O)(=O)c1ccc(COc2ccccc2CN2CCN(C(=O)CNC(=O)CC34CC5CC(CC(C5)C3)C4)CC2)cc1 [Compound 1258] | 400 | 
2 | N#Cc1ccc(COc2ccccc2CN2CCN(C(=O)CNC(=O)CC34CC5CC(CC(C5)C3)C4)CC2)cc1 [Compound 1259] | 700 | 
3 | NC(=O)c1ccc(COc2ccccc2CN2CCN(C(=O)CNC(=O)CC34CC5CC(CC(C5)C3)C4)CC2)cc1 [Compound 1260] | 700 | 
4 | COC(=O)c1ccc(COc2ccccc2CN2CCN(C(=O)CNC(=O)CC3CCC(F)(F)CC3)CC2)cc1 [Compound 1275, Methyl 4-((2-((4-((2-(4,4-difluorocyclohexyl)acetyl)glycyl)piperazin-1-yl)methyl)phenoxy)methyl)benzoate] | 50 | 
5 | COC(=O)c1ccc(COc2ccccc2CN2CCN(C(=O)CNC(=O)CC34CC5CC(C3)CC(C(=O)O)(C5)C4)CC2)cc1 [Compound 1277, (1s,3r,5R,7S)-3-(2-((2-(4-(2-((4-(Methoxycarbonyl)benzyl)oxy)benzyl)piperazin-1-yl)-2-oxoethyl)amino)-2-oxoethyl)adamantane-1-carboxylic acid] | > 2000 | 
6 | COC(=O)c1ccc(COc2ccccc2CN2CCN(C(=O)CNC(=O)CC(C)(C)C(F)(F)F)CC2)cc1 [Compound 1278, Methyl 4-((2-((4-((4,4,4-trifluoro-3,3-dimethylbutanoyl)glycyl)piperazin-1-yl)methyl)phenoxy)methyl)benzoate] | > 2000 | 
7 | COC(=O)c1ccc(COc2ccccc2CN2CCN(C(=O)CNC(=O)CC(C)(C)c3ccccc3)CC2)cc1 [Compound 1279] | 1500 | 
8 | COC(=O)c1ccc(COc2ccccc2CN2CCN(C(=O)CNC(=O)C3CCC(F)(F)CC3)CC2)cc1 [Compound 1298] | 1500 | 
9 | CC(=O)N1CCC(COc2ccc(Cl)cc2CN2CCN(C(=O)CNC(=O)CC34CC5CC(CC(C5)C3)C4)CC2)CC1 [Compound 1301, N-(2-(4-(2-((1-acetylpiperidin-4-yl)methoxy)-5-chlorobenzyl)piperazin-1-yl)-2-oxoethyl)-2-((3r,5r,7r)-adamantan-1-yl)acetamide] | 400 | 
10 | COC(=O)COc1ccc(Cl)cc1CN1CCN(C(=O)CNC(=O)CC23CC4CC(CC(C4)C2)C3)CC1 [Compound 1302, Methyl 2-(2-((4-((2-((1R,3R,5S)-adamantan-1-yl)acetyl)glycyl)piperazin-1-yl)methyl)-4-chlorophenoxy)acetate] | > 2000 | 
11 | COC(=O)CCCOc1ccc(Cl)cc1CN1CCN(C(=O)CNC(=O)CC23CC4CC(CC(C4)C2)C3)CC1 [Compound 1303, Methyl 4-(2-((4-((2-((1R,3R,5S)-Adamantan-1-yl)acetyl)glycyl)piperazin-1-yl)methyl)-4-chlorophenoxy)butanoate] | ~2000 | 
12 | Nc1ncc(Cl)cc1CN1CCN(C(=O)CNC(=O)CC23CC4CC(CC(C4)C2)C3)CC1 [Compound 1304, 2-((1R,3R,5S)-Adamantan-1-yl)-N-(2-(4-((2-amino-5-chloropyridin-3-yl)methyl)piperazin-1-yl)-2-oxoethyl)acetamide] | > 1500 | 
13 | O=C(CC12CC3CC(CC(C3)C1)C2)NCC(=O)N1CCN(Cc2cc(Cl)ccc2F)CC1 [Compound 1305, 2-((1R,3R,5S)-Adamantan-1-yl)-N-(2-(4-(5-chloro-2-fluorobenzyl)piperazin-1-yl)-2-oxoethyl)acetamide] | 360 | 
14 | O=C(CC12CC3CC(CC(C3)C1)C2)NCC(=O)N1CCN(Cc2c(F)ccc(Cl)c2F)CC1 [Compound 1306, 2-((1R,3R,5S)-Adamantan-1-yl)-N-(2-(4-(3-chloro-2,6-difluorobenzyl)piperazin-1-yl)-2-oxoethyl)acetamide] | 1350 | 
15 | O=C(CC12CC3CC(CC(C3)C1)C2)NCC(=O)N1CCN(Cc2cc(Cl)c(F)cc2F)CC1 [Compound 1307, 2-((1R,3R,5S)-Adamantan-1-yl)-N-(2-(4-(5-chloro-2,4-difluorobenzyl)piperazin-1-yl)-2-oxoethyl)acetamide] | 370 | 
16 | O=C(CC12CC3CC(CC(C3)C1)C2)NCC(=O)N1CCN(Cc2cc(Cl)ccc2C(F)(F)F)CC1 [Compound 1308, 2-((1R,3R,5S)-Adamantan-1-yl)-N-(2-(4-(5-chloro-2-(trifluoromethyl)benzyl)piperazin-1-yl)-2-oxoethyl)acetamide] |  | > 2000
17 | O=C(CC12CC3CC(CC(C3)C1)C2)NCC(=O)N1CCN(Cc2cc(Cl)ccc2OC(F)(F)F)CC1 [Compound 1309, 2-((1R,3R,5S)-Adamantan-1-yl)-N-(2-(4-(5-chloro-2-(trifluoromethoxy)benzyl)piperazin-1-yl)-2-oxoethyl)acetamide] | 420 | 
18 | COC(=O)c1cccc(-c2ccc(O)c(CN3CCN(C(=O)CNC(=O)CC45CC6CC(CC(C6)C4)C5)CC3)c2)c1 [Compound 1310, Methyl 3′-((4-((2-((1R,3R,5S)-adamantan-1-yl)acetyl)glycyl)piperazin-1-yl)methyl)-4′-hydroxy-[1,1′-biphenyl]-3-carboxylate] | 310 | 
19 | COC(=O)c1ccc(COc2ccccc2CN2CCN(C(=O)CNC(=O)CC3(C)CCCCC3)CC2)cc1 [Compound 1311, Methyl 4-((2-((4-((2-(1-methylcyclohexyl)acetyl)glycyl)piperazin-1-yl)methyl)phenoxy)methyl)benzoate] | 80 | 
20 | COC(=O)c1ccc(COc2ccccc2CN2CCN(C(=O)CNC(=O)Cc3ccc(F)cc3)CC2)cc1 [Compound 1312, Methyl 4-((2-((4-((2-(4-fluorophenyl)acetyl)glycyl)piperazin-1-yl)methyl)phenoxy)methyl)benzoate] | 600 | 
21 | COC(=O)c1ccc(COc2ccccc2CN2CCN(C(=O)CNC(=O)CC3CC(F)(F)C3)CC2)cc1 [Compound 1315, Methyl 4-((2-((4-((2-(3,3-difluorocyclobutyl)acetyl)glycyl)piperazin-1-yl)methyl)phenoxy)methyl)benzoate] | 400 | 
22 | COC(=O)c1ccc(COc2ccccc2CN2CCN(C(=O)CNC(=O)C3CC34CCCCC4)CC2)cc1 (centres unmarked) [Compound 1316, Methyl 4-((2-((4-((spiro[2.5]octane-1-carbonyl)glycyl)piperazin-1-yl)methyl)phenoxy)methyl)benzoate] | 70 | 
23 | COC(=O)c1ccc(COc2ccccc2CN2CCN(C(=O)CNC(=O)C3CC3(C)C)CC2)cc1 (centres unmarked) [Compound 1317, Methyl 4-((2-((4-((2,2-dimethylcyclopropane-1-carbonyl)glycyl)piperazin-1-yl)methyl)phenoxy)methyl)benzoate] | 400 | 
24 | COC(=O)c1ccc(COc2ccccc2CN2CCN(C(=O)CNC(=O)OC3CCC(F)(F)CC3)CC2)cc1 [Compound 1319, Methyl 4-((2-((4-((((4,4-difluorocyclohexyl)oxy)carbonyl)glycyl)piperazin-1-yl)methyl)phenoxy)methyl)benzoate] | 310 | 
25 | COC(=O)c1ccc(COc2ccccc2CN2CCN(C(=O)CNC(=O)NC3CCC(F)(F)CC3)CC2)cc1 [Compound 1320, Methyl 4-((2-((4-(((4,4-difluorocyclohexyl)carbamoyl)glycyl)piperazin-1-yl)methyl)phenoxy)methyl)benzoate] | > 2000 | 
26 | Nc1ccc(Cl)cc1CN1CCN(C(=O)CNC(=O)CC23CC4CC(CC(C4)C2)C3)CC1 [Compound 1321, 2-((1R,3R,5S)-Adamantan-1-yl)-N-(2-(4-(2-amino-5-chlorobenzyl)piperazin-1-yl)-2-oxoethyl)acetamide] | 90 | 
